According to article PMC12362615, “Design, Synthesis, and Cellular Characterization of a New Class of IPMK Kinase Inhibitors” (Journal of Medicinal Chemistry, 2025):

Tests used:
[1] = target: T1, purified recombinant human IP6K2 kinase domain (Homo sapiens, UniProt Q9UHH9); assay: IP6K2 IC50 determination, malachite green Pi release assay; format: biochemical
T1 sequence (Q9UHH9 1-426): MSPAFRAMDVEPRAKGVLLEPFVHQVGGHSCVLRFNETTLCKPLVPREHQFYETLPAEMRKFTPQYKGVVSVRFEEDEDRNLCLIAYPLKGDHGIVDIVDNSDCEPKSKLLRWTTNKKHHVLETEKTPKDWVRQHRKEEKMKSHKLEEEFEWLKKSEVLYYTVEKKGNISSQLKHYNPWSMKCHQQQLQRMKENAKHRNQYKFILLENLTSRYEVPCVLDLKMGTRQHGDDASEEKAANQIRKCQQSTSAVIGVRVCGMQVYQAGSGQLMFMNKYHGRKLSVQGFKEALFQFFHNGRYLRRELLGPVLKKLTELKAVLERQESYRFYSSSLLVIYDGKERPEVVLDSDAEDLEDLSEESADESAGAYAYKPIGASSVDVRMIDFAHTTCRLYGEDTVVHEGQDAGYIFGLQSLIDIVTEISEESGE
Experimental: IP6K2 IC50 values were determined using the purified recombinant human IP6K2 kinase domain expressed in a 384-well clear polystyrene plate (VWR 82051-264). This human IP6K2 kinase domain (100 nM) was used at 37 °C in 50 μL reaction mixtures containing 5.0 μM human Dipp1, 50 mM Tris (pH 6.9), 10 mM MgCl2, 0.02% Triton X-100, 25 μM InsP6, and 50 μM ATP for 30 min. Pi release was determined with a malachite green colorimetric assay. Reactions were quenched by the addition of 12.5 μL of phosphate detection reagent (MAK3071KT, Sigma-Aldrich). Pi release was quantified from the absorbance at 620 nm by using appropriate standards.

[2] = Pharmacokinetic studies in mice; format: in vivo, male CD1 mice
Experimental: All the procedures related to animal handling, care, and treatment in this study were performed according to guidelines approved by the Institutional Animal Care and Use Committee (IACUC) of Pharmaron (PK-R-06012023 and PK-M-07182023), following the guidance of the Association for Assessment and Accreditation of Laboratory Animal Care (AAALAC). A group of 3 male CD1 mice (2 for exploratory PK) were dosed intravenously (IV) or intraperitoneally (IP) with a solution formulation of the tested compounds in 10% NMP, 5% Solutol in normal saline (v/v/v, 10:5:85). From each mouse, blood samples ([…]) were collected from the orbital vein such that samples were obtained at 0.083, 0.25, 0.5, 1, 2, 4, 8, and 24 h post dose. At each time point, blood samples were collected from three mice in labeled microcentrifuge tubes containing EDTA-K2 as an anticoagulant. Plasma samples were separated by centrifugation of whole blood and stored at −75 ± 15 °C until bioanalysis. All samples were processed for analysis by precipitation using acetonitrile (ACN) and analyzed with a fit-for-purpose LC/MS/MS method (the below quantifiable limit (BLOQ) was 5.0 ng/mL). Pharmacokinetic parameters were calculated by a noncompartmental analysis model using WinNonlin 8.3.

EGFR = target: T2, EGFR (Homo sapiens, UniProt P00533); assay: Protein kinase profiling, Mobility Shift Assay (Carna Biosciences); format: biochemical; settings: read-out: % Inhibition at 1.0 μM 14
T2 construct: purchased Carna Biosciences
Experimental: (§1) Protein kinase profiling of compound 14 was executed by Carna Biosciences. Briefly, compound 14 was prepared by dissolving it in dimethyl sulfoxide (DMSO) and then further diluting it in DMSO to a concentration of […]. That stock solution was further diluted 25-fold with kinase assay buffer (20 mM HEPES, 0.01% Triton X-100, 2 mM DTT, pH 7.5) to make the final 1 μM compound 14 solution. Reference compounds for the assay controls were prepared similarly. The off-chip Mobility Shift Assay (MSA) was prepared with 5 μL of 4× compound solution, 5 μL of 4× substrate/ATP/metal solution, and 10 μL of 2× kinase solution, prepared with assay buffer (20 mM HEPES, 0.01% Triton X-100, 2 mM DTT, pH 7.5). The components were mixed and incubated in a polypropylene 384-well microplate for 1 h or 5 h at room temperature, depending on the kinase being tested. 60 μL of termination buffer (QuickScout Screening Assist MSA; Carna Biosciences) was added to the well to stop the reactions, and the mixture was applied to a LabChip3000 system (Caliper Life Sciences. The product and substrate peptide peaks were separated and quantitated. The kinase reactions were evaluated by the product ratio, calculated from the peak heights of the product (P) and substrate (S) peptides (P/(P + S)). Product ratio values for the control reaction were set as 0% inhibition, and the readout value of the background (no kinase added) was set as 100% inhibition. The percent inhibition of each test solution was then calculated as reported in Figure A. The phylogenetic tree was generated using KinMap at https://bmcbioinformatics.biomedcentral.com/articles/10.1186/s12859-016-1433-7.

Erk2 = target: T3, Erk2 (Homo sapiens, UniProt P28482); assay: as above; format: biochemical; settings: read-out: % Inhibition at 1.0 μM 14
T3 construct: purchased Carna Biosciences
Experimental: as §1

FGFR1 = target: T4, FGFR1 (Homo sapiens, UniProt P11362); assay: as above; format: biochemical; settings: read-out: % Inhibition at 1.0 μM 14
T4 construct: purchased Carna Biosciences
Experimental: as §1

IGF1R = target: T5, IGF1R (Homo sapiens, UniProt P08069); assay: as above; format: biochemical; settings: read-out: % Inhibition at 1.0 μM 14
T5 construct: purchased Carna Biosciences
Experimental: as §1

ITK = target: T6, ITK (Homo sapiens, UniProt Q08881); assay: as above; format: biochemical; settings: read-out: % Inhibition at 1.0 μM 14
T6 construct: purchased Carna Biosciences
Experimental: as §1

KDR = target: T7, KDR (Homo sapiens, UniProt P35968); assay: as above; format: biochemical; settings: read-out: % Inhibition at 1.0 μM 14
T7 construct: purchased Carna Biosciences
Experimental: as §1

ROCK1 = target: T8, ROCK1 (Homo sapiens, UniProt Q13464); assay: as above; format: biochemical; settings: read-out: % Inhibition at 1.0 μM 14
T8 construct: purchased Carna Biosciences
Experimental: as §1

SRC = target: T9, SRC (Homo sapiens, UniProt P12931); assay: as above; format: biochemical; settings: read-out: % Inhibition at 1.0 μM 14
T9 construct: purchased Carna Biosciences
Experimental: as §1

TRKA = target: T10, TRKA (Homo sapiens, UniProt P04629); assay: as above; format: biochemical; settings: read-out: % Inhibition at 1.0 μM 14
T10 construct: purchased Carna Biosciences
Experimental: as §1

[3] = male, CD1, mouse, plasma, IV, dose 2.75 mg/kg

T10 sequence (P04629 33-796): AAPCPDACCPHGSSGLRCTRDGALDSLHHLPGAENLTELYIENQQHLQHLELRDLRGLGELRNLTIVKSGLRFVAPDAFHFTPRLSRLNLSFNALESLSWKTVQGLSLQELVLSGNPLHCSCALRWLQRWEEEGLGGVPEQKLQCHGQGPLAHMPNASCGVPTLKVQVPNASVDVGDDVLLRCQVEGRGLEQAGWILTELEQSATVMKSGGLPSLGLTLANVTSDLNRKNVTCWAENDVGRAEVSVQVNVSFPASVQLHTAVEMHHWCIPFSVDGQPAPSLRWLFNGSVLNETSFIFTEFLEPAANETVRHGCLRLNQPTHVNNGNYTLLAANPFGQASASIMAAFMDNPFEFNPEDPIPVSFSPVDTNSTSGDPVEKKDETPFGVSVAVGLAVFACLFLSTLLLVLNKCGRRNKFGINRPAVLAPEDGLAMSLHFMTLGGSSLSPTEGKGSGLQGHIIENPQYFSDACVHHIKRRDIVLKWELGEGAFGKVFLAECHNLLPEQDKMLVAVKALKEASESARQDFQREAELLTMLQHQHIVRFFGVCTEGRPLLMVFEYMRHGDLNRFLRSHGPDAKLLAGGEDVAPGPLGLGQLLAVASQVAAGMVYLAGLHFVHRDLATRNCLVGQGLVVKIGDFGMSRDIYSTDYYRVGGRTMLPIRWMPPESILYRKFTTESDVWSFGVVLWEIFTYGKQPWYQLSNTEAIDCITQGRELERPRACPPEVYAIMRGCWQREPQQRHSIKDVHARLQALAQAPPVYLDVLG
T3 sequence (P28482 whole entry): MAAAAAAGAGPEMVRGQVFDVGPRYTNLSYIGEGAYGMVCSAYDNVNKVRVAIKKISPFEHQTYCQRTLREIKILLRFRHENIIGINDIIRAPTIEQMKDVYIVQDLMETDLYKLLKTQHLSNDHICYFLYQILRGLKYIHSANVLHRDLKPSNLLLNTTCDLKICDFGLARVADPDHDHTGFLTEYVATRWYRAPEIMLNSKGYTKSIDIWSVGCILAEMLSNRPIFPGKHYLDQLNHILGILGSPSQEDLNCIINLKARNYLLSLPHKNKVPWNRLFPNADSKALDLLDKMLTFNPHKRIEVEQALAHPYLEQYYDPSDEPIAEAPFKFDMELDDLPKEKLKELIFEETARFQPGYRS
T2 sequence (P00533 25-1210): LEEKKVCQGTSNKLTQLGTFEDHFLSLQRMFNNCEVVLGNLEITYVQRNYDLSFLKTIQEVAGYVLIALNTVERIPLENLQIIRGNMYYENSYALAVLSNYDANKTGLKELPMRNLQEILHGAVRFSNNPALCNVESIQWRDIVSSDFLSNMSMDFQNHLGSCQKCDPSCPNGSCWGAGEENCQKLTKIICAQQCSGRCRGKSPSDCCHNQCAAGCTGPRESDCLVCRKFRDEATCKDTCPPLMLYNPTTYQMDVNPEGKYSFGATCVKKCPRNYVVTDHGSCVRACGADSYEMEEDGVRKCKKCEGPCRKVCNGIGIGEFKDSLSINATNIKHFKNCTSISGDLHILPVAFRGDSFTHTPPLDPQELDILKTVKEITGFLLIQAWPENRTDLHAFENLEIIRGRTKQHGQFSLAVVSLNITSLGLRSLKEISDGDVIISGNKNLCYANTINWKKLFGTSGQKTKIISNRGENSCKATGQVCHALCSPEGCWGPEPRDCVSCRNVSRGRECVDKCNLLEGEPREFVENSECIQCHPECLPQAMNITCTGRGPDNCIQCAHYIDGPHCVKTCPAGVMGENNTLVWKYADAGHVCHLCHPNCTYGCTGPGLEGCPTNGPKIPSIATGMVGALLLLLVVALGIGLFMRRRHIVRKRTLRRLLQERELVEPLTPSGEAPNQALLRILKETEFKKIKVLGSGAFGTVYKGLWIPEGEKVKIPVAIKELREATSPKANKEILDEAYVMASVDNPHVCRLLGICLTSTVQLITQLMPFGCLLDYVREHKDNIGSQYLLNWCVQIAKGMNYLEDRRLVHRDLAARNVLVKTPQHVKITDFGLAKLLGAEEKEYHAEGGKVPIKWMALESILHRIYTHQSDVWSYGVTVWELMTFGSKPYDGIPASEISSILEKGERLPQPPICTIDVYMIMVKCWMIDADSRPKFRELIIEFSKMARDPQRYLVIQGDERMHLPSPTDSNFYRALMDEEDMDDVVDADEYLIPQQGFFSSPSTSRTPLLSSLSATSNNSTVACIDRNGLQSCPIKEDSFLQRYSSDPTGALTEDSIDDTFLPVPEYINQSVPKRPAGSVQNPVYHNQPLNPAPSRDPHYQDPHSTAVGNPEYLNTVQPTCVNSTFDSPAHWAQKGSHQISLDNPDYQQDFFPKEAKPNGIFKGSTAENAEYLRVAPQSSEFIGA
T8 sequence (Q13464 whole entry): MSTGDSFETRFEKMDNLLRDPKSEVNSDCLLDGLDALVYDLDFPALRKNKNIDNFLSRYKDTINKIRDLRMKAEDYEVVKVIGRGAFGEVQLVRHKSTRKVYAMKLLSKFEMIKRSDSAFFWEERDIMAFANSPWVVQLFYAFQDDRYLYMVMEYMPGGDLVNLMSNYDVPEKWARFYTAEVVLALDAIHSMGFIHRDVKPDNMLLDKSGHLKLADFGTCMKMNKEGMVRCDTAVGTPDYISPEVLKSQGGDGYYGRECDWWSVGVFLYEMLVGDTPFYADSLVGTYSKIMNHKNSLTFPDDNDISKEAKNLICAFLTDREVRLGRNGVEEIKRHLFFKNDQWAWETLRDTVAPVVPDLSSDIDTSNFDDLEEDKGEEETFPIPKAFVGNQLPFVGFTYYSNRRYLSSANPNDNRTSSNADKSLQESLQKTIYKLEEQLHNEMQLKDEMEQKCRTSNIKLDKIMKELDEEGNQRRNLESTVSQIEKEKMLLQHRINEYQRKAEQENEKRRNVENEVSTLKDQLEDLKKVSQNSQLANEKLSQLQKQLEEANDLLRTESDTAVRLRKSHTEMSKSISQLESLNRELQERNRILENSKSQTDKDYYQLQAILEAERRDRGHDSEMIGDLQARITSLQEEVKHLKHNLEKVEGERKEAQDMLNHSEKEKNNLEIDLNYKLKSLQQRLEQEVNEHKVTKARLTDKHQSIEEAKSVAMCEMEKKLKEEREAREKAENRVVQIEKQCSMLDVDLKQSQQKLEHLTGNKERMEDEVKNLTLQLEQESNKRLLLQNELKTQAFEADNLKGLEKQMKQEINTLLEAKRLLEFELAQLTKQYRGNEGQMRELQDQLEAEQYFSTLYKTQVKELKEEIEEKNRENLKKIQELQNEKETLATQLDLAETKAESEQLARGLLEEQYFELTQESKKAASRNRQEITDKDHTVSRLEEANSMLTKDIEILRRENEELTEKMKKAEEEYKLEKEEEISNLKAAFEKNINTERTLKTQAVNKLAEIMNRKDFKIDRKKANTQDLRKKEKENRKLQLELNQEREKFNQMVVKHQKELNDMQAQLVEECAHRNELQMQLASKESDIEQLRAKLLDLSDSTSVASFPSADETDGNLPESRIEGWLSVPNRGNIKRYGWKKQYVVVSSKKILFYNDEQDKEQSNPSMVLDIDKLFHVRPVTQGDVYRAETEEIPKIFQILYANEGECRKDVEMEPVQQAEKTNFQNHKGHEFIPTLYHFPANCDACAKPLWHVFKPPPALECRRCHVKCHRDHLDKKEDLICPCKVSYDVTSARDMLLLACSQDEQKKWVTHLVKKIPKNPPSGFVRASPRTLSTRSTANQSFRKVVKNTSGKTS
T4 sequence (P11362 22-822): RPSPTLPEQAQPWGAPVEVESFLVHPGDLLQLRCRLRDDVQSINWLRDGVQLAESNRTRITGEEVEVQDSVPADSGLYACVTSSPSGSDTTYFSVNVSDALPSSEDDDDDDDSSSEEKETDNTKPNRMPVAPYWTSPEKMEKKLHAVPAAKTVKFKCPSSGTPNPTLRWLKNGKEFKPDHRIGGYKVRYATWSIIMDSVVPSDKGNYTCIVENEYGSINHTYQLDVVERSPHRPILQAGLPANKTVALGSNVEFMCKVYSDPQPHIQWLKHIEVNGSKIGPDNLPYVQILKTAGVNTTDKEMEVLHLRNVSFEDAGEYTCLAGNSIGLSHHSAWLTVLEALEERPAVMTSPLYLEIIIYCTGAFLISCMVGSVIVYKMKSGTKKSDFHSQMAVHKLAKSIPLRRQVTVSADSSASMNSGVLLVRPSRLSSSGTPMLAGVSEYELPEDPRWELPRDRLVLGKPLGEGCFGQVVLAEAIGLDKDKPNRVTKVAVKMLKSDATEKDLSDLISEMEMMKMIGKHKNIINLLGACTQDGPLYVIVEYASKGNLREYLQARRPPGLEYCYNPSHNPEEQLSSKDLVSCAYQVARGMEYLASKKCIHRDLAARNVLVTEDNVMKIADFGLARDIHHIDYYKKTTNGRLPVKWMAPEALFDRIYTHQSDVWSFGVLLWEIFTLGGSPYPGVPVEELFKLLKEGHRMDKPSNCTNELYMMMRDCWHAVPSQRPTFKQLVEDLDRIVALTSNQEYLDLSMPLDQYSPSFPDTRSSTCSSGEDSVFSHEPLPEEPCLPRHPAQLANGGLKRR
T9 sequence (P12931 whole entry): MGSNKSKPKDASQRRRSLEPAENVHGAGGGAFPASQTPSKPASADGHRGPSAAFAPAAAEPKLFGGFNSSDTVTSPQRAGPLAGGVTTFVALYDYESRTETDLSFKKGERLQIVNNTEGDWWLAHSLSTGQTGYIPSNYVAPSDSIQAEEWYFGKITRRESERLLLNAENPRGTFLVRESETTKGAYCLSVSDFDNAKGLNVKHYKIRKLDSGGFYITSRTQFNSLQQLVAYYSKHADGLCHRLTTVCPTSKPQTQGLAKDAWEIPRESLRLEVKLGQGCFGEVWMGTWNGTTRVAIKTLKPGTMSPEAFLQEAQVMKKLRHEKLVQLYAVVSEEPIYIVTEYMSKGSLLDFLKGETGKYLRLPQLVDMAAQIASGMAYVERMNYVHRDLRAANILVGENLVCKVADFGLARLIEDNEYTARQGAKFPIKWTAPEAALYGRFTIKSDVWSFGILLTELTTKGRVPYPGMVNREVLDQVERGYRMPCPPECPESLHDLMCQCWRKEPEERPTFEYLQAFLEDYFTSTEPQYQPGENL

Question: Which results are given for `c1cc(-c2onc3ccc(-c4nnn[nH]4)cc23)cc(C2CCN(C3CCC3)CC2)c1` [Compound 14, 3-(3-(1-Cyclobutylpiperidin-4-yl)phenyl)-5-(1H-tetrazol-5-yl)benzo[c]isoxazole]?
Answer: IP6K2/IPMK ([1]; Table S1, ratio of IC50 values): 12; selectivity for IPMK over IP6K2 ([1]; from Table S1): 12 fold; IC50 ([1]; supplementary csv): 374 ± 159 nM; Vss (L/kg) ([2]; IV, dose 2.75 mg/kg): increased; AUC(0-t) ([2]; male, CD1, mouse, plasma, 10 mg/kg via IV and IP administration (route of this value not stated), n = 3): 8.26 µM·h; AUC(0-t) [2, 3]: 4.6 µM·h; Cmax [2, 3]: 28.3 µM; clearance [2, 3]: 22.8 mL/min/kg; half-life [2, 3]: 1.95 h; Vd ([2]; male, CD1, mouse, plasma, IV, dose 2.75 mg/kg, read-out: Vss): 0.39 L/kg; bioavailability ([2]; male, CD1, mouse, plasma, intraperitoneal, 10 mg/kg, IP vs IV, n = 3): 82%; inhibition at 1 µM (EGFR): 3.4%; inhibition at 1 µM (Erk2): -2.2%; inhibition at 1 µM (FGFR1): 40.5%; inhibition at 1 µM (IGF1R): 1.7%; inhibition at 1 µM (ITK): 5.7%; inhibition at 1 µM (KDR): ≥ 75%; inhibition at 1 µM (ROCK1): 6.1%; inhibition at 1 µM (SRC): 18.4%; inhibition at 1 µM (TRKA): 35.9%
